Experimental data reported in patent US11905230B2, “Phenoxyacetic acid derivatives, preparation method thereof and use thereof as medicament” (CHINA PHARMACEUTICAL UNIVERSITY, priority 2017, dated 2024).
One block for each compound: values may come before it.

What was measured:
hGPR40 receptor = hGPR40 receptor (Homo sapiens (Human), UniProt O14842); assay: agonistic activity on hGPR40-CHO stably transfected cells (Fluo-4 / FLIPR); assay type: cell-based; conditions: for activation at 0.1 µM / Agonistic activity at 100 nM (%): 100 nM, relative to linoleic acid well; for EC50: mean ± SD of three determinations
Sequence of hGPR40 receptor (O14842 whole entry): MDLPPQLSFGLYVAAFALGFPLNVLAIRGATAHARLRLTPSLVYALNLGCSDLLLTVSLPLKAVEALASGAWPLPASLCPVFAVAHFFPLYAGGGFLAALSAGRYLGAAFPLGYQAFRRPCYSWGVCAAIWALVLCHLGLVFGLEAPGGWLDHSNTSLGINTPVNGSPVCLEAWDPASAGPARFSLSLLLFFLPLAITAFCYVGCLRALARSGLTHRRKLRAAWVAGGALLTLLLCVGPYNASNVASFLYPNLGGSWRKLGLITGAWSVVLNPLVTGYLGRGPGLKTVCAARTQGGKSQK
Method: Experimental example 1 The agonistic activity of the compounds of the present invention on hGPR40-CHO stably transfected cells
The present invention used the following method to determine the GPR40 agonistic activity of the compounds of the invention:
hGPR40-CHO stably transfected cells were seeded into a 96-well plate at a density of 3×10^4/well, and incubated overnight in a 37° C., 5% CO2 cell incubator; the medium was discarded, 100 μl of HBSS was added to each well, and 100 μl of Fluo-4 dye solution containing Probenecid was added and incubated at 37° C. for 90 min. After the incubation, the Fluo-4 dye solution was sucked out, 100 μl of HBSS buffer was added, and the dye was washed away; 100 μl of HBSS containing Probenecid was added to each well, and incubated at 37° C. for 10 min; different concentrations of drugs were added to each well of the 96-well plate and FLIPR (Molecular Devices) was used for readings according to the parameter setting table. The experimental results were analyzed.

[1] = Evaluation of hepatotoxicity: serum ALT, AST and TBIL after 4 weeks of dosing; assay type: in vivo; conditions: for AST, ALT and TBIL compared with STZ (blank) group (in words): 4 weeks of dosing; for ALT (IU/L) / AST (IU/L) / TBIL (IU/L): serum, once a day for consecutive 4 weeks, x ± SD, n = 6
Method: Experimental example 3 Evaluation of hepatotoxicity of the compounds of the present invention:
The test compounds were administered once a day for consecutive 4 weeks, blood was taken, and the contents of alanine aminotransferase (ALT), aspartate aminotransferase (AST), and total bilirubin (TBIL) were measured.

normal mice = assay: Oral glucose tolerance test (OGTT) in normal mice; assay type: in vivo, Kunming mice; conditions: for effect on oral glucose tolerance in mice (in words): OGTT in normal mice, 20 mg/kg; for blood glucose level at 15 min / blood glucose level at 0 min / blood glucose level at 30 min / blood glucose level at 60 min / blood glucose level at 120 min: 20 mg/kg by gavage, in mmol/L (unit assumed); for blood glucose level at 15 min: 15 min after glucose load; for blood glucose level at 0 min: 30 min after dosing, before glucose load; for blood glucose level at 30 min: 30 min after glucose load; for blood glucose level at 60 min: 60 min after glucose load; for blood glucose level at 120 min: 120 min after glucose load
Method: Experimental example 2 In vivo hypoglycemic activity of the compounds of the present invention can be determined by using an assay system as described below:
The mice were fasted for 12 hours before experiment and water was taken freely, each group was administrated by gavage, blood was taken from the tail, and the blood glucose level was measured (recorded as −30 min).

activation at 0.1 µM (hGPR40 receptor): 79%
Structure (SMILES): CCOc1cc(C)c(-c2cccc(CNc3ccc(OCC(=O)O)c(F)c3)c2)c(C)c1 [Compound I-1, 2-(4-((4′-ethoxy-2′,6′-dimethyl-[1,1′-biphenyl]-3-methylene)amino)-2-fluorophenoxy) acetic acid]

activation at 0.1 µM (hGPR40 receptor): 84%
EC50 (hGPR40 receptor): 16.3 ± 4.6 nM
Structure (SMILES): O=C(O)COc1ccc(NCc2cccc(-c3ccccc3Cl)c2)cc1F [Compound I-2, 2-(4-((2′-chloro-[1,1′-biphenyl]-3-methylene)amino)-2-fluorophenoxy)acetic acid]
AST, ALT and TBIL compared with STZ (blank) group (in words) [1]: equivalent to the blank group
ALT (IU/L) [1]: 47 ± 5.3 IU/L
AST (IU/L) [1]: 118.43 ± 11.5 IU/L
TBIL (IU/L) [1]: 2.61 ± 0.5 IU/L
effect on oral glucose tolerance in mice (in words) (normal mice): significantly improve oral glucose tolerance
blood glucose level at 15 min (normal mice; OGTT, n = 8): 6.24 ± 0.39
blood glucose level at 0 min (normal mice; OGTT, n = 8): 4.25 ± 0.38
blood glucose level at 30 min (normal mice; OGTT, n = 8): 6.73 ± 0.29
blood glucose level at 60 min (normal mice; OGTT, n = 8): 4.28 ± 0.37
blood glucose level at 120 min (normal mice; OGTT, n = 8): 4.17 ± 0.52

activation at 0.1 µM (hGPR40 receptor): 65%
Structure (SMILES): O=C(O)COc1ccc(NCc2cccc(-c3ccccc3F)c2)cc1F [Compound I-4, 2-(4-((2′-fluoro-[1,1′-biphenyl]-3-methylene)amino)-2-fluorophenoxy)acetic acid]

activation at 0.1 µM (hGPR40 receptor): 73%
Structure (SMILES): Cc1ccc(-c2cccc(CNc3ccc(OCC(=O)O)c(F)c3)c2)c(Cl)c1 [Compound I-5, 2-(4-((2′-chloro-4′-methyl-[1,1′-biphenyl]-3-methylene)amino)-2-fluorophenoxy)acetic acid]

activation at 0.1 µM (hGPR40 receptor): 53%
melting point: 95 to 96 °C
Structure (SMILES): COc1ccccc1-c1cccc(CNc2ccc(OCC(=O)O)c(F)c2)c1 [Compound I-6, 2-(4-((2′-methoxy-[1,1′-biphenyl]-3-methylene)amino)-2-fluorophenoxy)acetic acid]

activation at 0.1 µM (hGPR40 receptor): 86%
EC50 (hGPR40 receptor): 11.7 ± 4.8 nM
Structure (SMILES): O=C(O)COc1ccc(NCc2cccc(-c3ccccc3C(F)(F)F)c2)cc1F [Compound I-8, 2-(4-((2′-trifluoromethyl-[1,1′-biphenyl]-3-methylene)amino)-2-fluorophenoxy)acetic acid]
AST, ALT and TBIL compared with STZ (blank) group (in words) [1]: equivalent to the blank group
ALT (IU/L) [1]: 46.63 ± 6.2 IU/L
AST (IU/L) [1]: 112.85 ± 17.76 IU/L
TBIL (IU/L) [1]: 2.52 ± 0.3 IU/L
effect on oral glucose tolerance in mice (in words) (normal mice): significantly improve oral glucose tolerance
blood glucose level at 15 min (normal mice; OGTT, n = 8): 6.73 ± 0.65
blood glucose level at 0 min (normal mice; OGTT, n = 8): 4.46 ± 0.47
blood glucose level at 30 min (normal mice; OGTT, n = 8): 6.82 ± 0.58
blood glucose level at 60 min (normal mice; OGTT, n = 8): 5.17 ± 0.39
blood glucose level at 120 min (normal mice; OGTT, n = 8): 4.26 ± 0.25

activation at 0.1 µM (hGPR40 receptor): 67%
Structure (SMILES): CCCOc1cc(C)c(-c2cccc(CNc3ccc(OCC(=O)O)c(F)c3)c2)c(C)c1 [Compound I-9, 2-(4-((4′-propoxy-2′,6′-dimethyl-[1,1′-biphenyl]-3-methylene)amino)-2-fluorophenoxy) acetic acid]

activation at 0.1 µM (hGPR40 receptor): 62%
Structure (SMILES): COCCOc1cc(C)c(-c2cccc(CNc3ccc(OCC(=O)O)c(F)c3)c2)c(C)c1 [Compound I-10]

activation at 0.1 µM (hGPR40 receptor): 46%
Structure (SMILES): O=C(O)COc1ccc(NCc2cccc(-c3ccccc3)c2)cc1F [Compound I-11, 2-(4-(([1,1′-biphenyl]-3-methylene)amino)-2-fluorophenoxy)acetic acid]

activation at 0.1 µM (hGPR40 receptor): 68%
Structure (SMILES): Cc1cc(OCCCS(C)(=O)=O)cc(C)c1-c1cccc(CNc2ccc(OCC(=O)O)c(F)c2)c1 [Compound I-12]

activation at 0.1 µM (hGPR40 receptor): 85%
EC50 (hGPR40 receptor): 14.6 ± 3.7 nM
Structure (SMILES): CCOc1ccc(-c2cccc(CNc3ccc(OCC(=O)O)c(F)c3)c2)c(C)c1 [Compound I-13]
AST, ALT and TBIL compared with STZ (blank) group (in words) [1]: equivalent to the blank group
ALT (IU/L) [1]: 52.37 ± 5.3 IU/L
AST (IU/L) [1]: 121.37 ± 13.2 IU/L
TBIL (IU/L) [1]: 2.48 ± 0.5 IU/L
effect on oral glucose tolerance in mice (in words) (normal mice): significantly improve oral glucose tolerance
blood glucose level at 15 min (normal mice; OGTT, n = 8): 7.25 ± 0.58
blood glucose level at 0 min (normal mice; OGTT, n = 8): 4.61 ± 0.35
blood glucose level at 30 min (normal mice; OGTT, n = 8): 7.03 ± 0.89
blood glucose level at 60 min (normal mice; OGTT, n = 8): 5.25 ± 0.72
blood glucose level at 120 min (normal mice; OGTT, n = 8): 4.38 ± 0.37

activation at 0.1 µM (hGPR40 receptor): 75%
EC50 (hGPR40 receptor): 28.4 ± 2.8 nM
Structure (SMILES): CCCOc1ccc(-c2cccc(CNc3ccc(OCC(=O)O)c(F)c3)c2)c(C)c1 [Compound I-15]

activation at 0.1 µM (hGPR40 receptor): 63%
Structure (SMILES): CC(C)c1ccccc1-c1cccc(CNc2ccc(OCC(=O)O)c(F)c2)c1 [Compound I-16]

Structure (SMILES): CCOc1cc(C)c(-c2cccc(CNc3ccc(OCC(=O)O)cc3)c2)c(C)c1 [Compound I-17, 2-(4-((4′-ethoxy-2′,6′-dimethyl-[1,1′-biphenyl]-3-methylene)amino)phenoxy)acetic acid]
Agonistic activity at 100 nM (%) (hGPR40 receptor): 70%

activation at 0.1 µM (hGPR40 receptor): 80%
EC50 (hGPR40 receptor): 18.4 ± 2.2 nM
Structure (SMILES): COc1ccc(-c2cccc(CNc3ccc(OCC(=O)O)c(F)c3)c2)c(C)c1 [Compound I-19]
ALT (IU/L) [1]: 50.33 ± 4.6 IU/L
AST (IU/L) [1]: 123.45 ± 7.8 IU/L
TBIL (IU/L) [1]: 2.68 ± 0.3 IU/L
blood glucose level at 15 min (normal mice; OGTT, n = 8): 9.08 ± 0.62
blood glucose level at 0 min (normal mice; OGTT, n = 8): 4.45 ± 0.56
blood glucose level at 30 min (normal mice; OGTT, n = 8): 8.21 ± 0.39
blood glucose level at 60 min (normal mice; OGTT, n = 8): 5.23 ± 0.21
blood glucose level at 120 min (normal mice; OGTT, n = 8): 4.41 ± 0.44

activation at 0.1 µM (hGPR40 receptor): 68%
Structure (SMILES): COc1cc(C)c(-c2cccc(CNc3ccc(OCC(=O)O)c(F)c3)c2)c(C)c1 [Compound I-20, 2-(4-((4′-methoxy-2′,6′-dimethyl-[1,1′-biphenyl]-3-methylene)amino)-2-fluorophenoxy)acetic acid]

Structure (SMILES): O=C(O)COc1ccc(NCc2cccc(-c3ccccc3C(F)(F)F)c2)cc1 [Compound I-28, 2-(4-((2′-trifluoromethyl-[1,1′-biphenyl]-3-methylene)amino)phenoxy)acetic acid]
ALT (IU/L) [1]: 49.36 ± 7.8 IU/L
AST (IU/L) [1]: 119.68 ± 7.3 IU/L
TBIL (IU/L) [1]: 2.57 ± 0.5 IU/L
Agonistic activity at 100 nM (%) (hGPR40 receptor): 81%
EC50 (hGPR40 receptor): 17.9 ± 2.9 nM
effect on oral glucose tolerance in mice (in words) (normal mice): significantly improve oral glucose tolerance
blood glucose level at 15 min (normal mice; OGTT, n = 8): 8.59 ± 0.38
blood glucose level at 0 min (normal mice; OGTT, n = 8): 4.56 ± 0.48
blood glucose level at 30 min (normal mice; OGTT, n = 8): 7.43 ± 0.56
blood glucose level at 60 min (normal mice; OGTT, n = 8): 5.30 ± 0.26
blood glucose level at 120 min (normal mice; OGTT, n = 8): 4.21 ± 0.45
blood glucose level at −30 min (normal mice; OGTT, fasted mice, before dosing, x ± SD, n = 8): 4.35 ± 0.36

Structure (SMILES): Cc1cc(OC(F)(F)F)cc(C)c1-c1cccc(CNc2ccc(OCC(=O)O)cc2)c1 [Compound I-29, 2-(4-((4′-trifluoromethoxy-2′,6′-dimethyl-[1,1′-biphenyl]-3-methylene)amino)phenoxy)acetic acid]
Agonistic activity at 100 nM (%) (hGPR40 receptor): 62%

Structure (SMILES): Cc1cc(OC(F)(F)F)ccc1-c1cccc(CNc2ccc(OCC(=O)O)cc2)c1 [Compound I-30, 2-(4-((4′-trifluoromethoxy-2′-methyl-[1,1′-biphenyl]-3-methylene)amino)phenoxy)acetic acid]
Agonistic activity at 100 nM (%) (hGPR40 receptor): 76%

activation at 0.1 µM (hGPR40 receptor): 79%
Structure (SMILES): CCOc1ccc(-c2cccc(CNc3ccc(OCC(=O)O)cc3)c2)c(C)c1 [Compound I-31]

melting point: 132 to 135 °C
Structure (SMILES): CCCCCCOc1cc(C)c(-c2cccc(CNc3ccc(OCC(=O)O)c(F)c3)c2)c(C)c1 [Compound I-42, 2(2-fluoro-4-(((4′-(hexyloxy)-2′,6′-dimethyl-[1,1′-biphenyl]-3-yl)methyl)amino)phenoxy)acetic acid]

melting point: 130 to 132 °C
Structure (SMILES): CCCCCCOc1cc(C)c(-c2cccc(CNc3ccc(OCC(=O)O)cc3)c2)c(C)c1 [Compound I-43, 2(4-(((4′-(hexyloxy)-2′,6′-dimethyl-[1,1′-biphenyl]-3-yl)methyl)amino)phenoxy)acetic acid]

melting point: 136 to 138 °C
Structure (SMILES): Cc1cc(OC2CCCCC2)cc(C)c1-c1cccc(CNc2ccc(OCC(=O)O)c(F)c2)c1 [Compound I-44, 2(2-fluoro-4-(((4′-(cyclohexyloxy)-2′,6′-dimethyl-[1,1′-biphenyl]-3-yl)methyl)amino)phenoxy)acetic acid]

Agonistic activity at 100 nM (%) (hGPR40 receptor): 65%
Structure (SMILES): Cc1cc(OCCCS(C)(=O)=O)cc(C)c1-c1cccc(COc2ccc3c(c2)OC[C@H]3CC(=O)O)c1 [TAK-875, reference compound]
AST, ALT and TBIL compared with STZ (blank) group (in words) [1]: AST was higher than STZ group
ALT (IU/L) [1]: 72.83 ± 8.4 IU/L
AST (IU/L) [1]: 149.33 ± 15.6 IU/L
TBIL (IU/L) [1]: 2.98 ± 0.4 IU/L
blood glucose level at 15 min (normal mice; OGTT, n = 8): 9.68 ± 0.46
blood glucose level at 0 min (normal mice; OGTT, n = 8): 4.53 ± 0.25
blood glucose level at 30 min (normal mice; OGTT, n = 8): 8.61 ± 0.45
blood glucose level at 60 min (normal mice; OGTT, n = 8): 5.47 ± 0.56
blood glucose level at 120 min (normal mice; OGTT, n = 8): 4.46 ± 0.57
